# Assay results taken from the kinase profiling compilation of Christmann-Franck et al. (2016).
# What was measured:
# Test in all cases: KINOMEscan competition binding
# AKT1 (human) = AKT1 (human) (UniProt P31749)
# AURKA (human) = AURKA (human) (UniProt O14965)
# CDK14 (human) = CDK14 (human) (UniProt O94921)
# CDK16 (human) = CDK16 (human) (UniProt Q00536)
# CDK4 CCND3 (human) = CDK4 CCND3 (human) (UniProt P11802+P30281)
# CHUK (human) = CHUK (human) (UniProt O15111)
# CSNK1A1L (human) = CSNK1A1L (human) (UniProt Q8N752)
# CSNK1G2 (human) = CSNK1G2 (human) (UniProt P78368)
# DDR1 (human) = DDR1 (human) (UniProt Q08345)
# DYRK1A (human) = DYRK1A (human) (UniProt Q13627)
# EPHA2 (human) = EPHA2 (human) (UniProt P29317)
# EPHA7 (human) = EPHA7 (human) (UniProt Q15375)
# ERBB4 (human) = ERBB4 (human) (UniProt Q15303)
# FGFR1 (human) = FGFR1 (human) (UniProt P11362)
# FRK (human) = FRK (human) (UniProt P42685)
# IKBKB (human) = IKBKB (human) (UniProt O14920)
# [1] = biological target: JAK1 JH2 pseudokinase (human) (UniProt P23458)
# [2] = test system: KIT (human), P10721 [V559D/T670I]
# LIMK1 (human) = LIMK1 (human) (UniProt P53667)
# MAP3K3 (human) = MAP3K3 (human) (UniProt Q99759)
# MAP4K1 (human) = MAP4K1 (human) (UniProt Q92918)
# MAP4K4 (human) = MAP4K4 (human) (UniProt O95819)
# MAPKAPK2 (human) = MAPKAPK2 (human) (UniProt P49137)
# MAPKAPK5 (human) = MAPKAPK5 (human) (UniProt Q8IW41)
# MELK (human) = MELK (human) (UniProt Q14680)
# NEK2 (human) = NEK2 (human) (UniProt P51955)
# NTRK2 (human) = NTRK2 (human) (UniProt Q16620)
# PAK2 (human) = PAK2 (human) (UniProt Q13177)
# PAK4 (human) = PAK4 (human) (UniProt O96013)
# [3] = test system: PIK3CA (human), P42336 [E542K]
# [4] = test system: PIK3CA (human), P42336 [H1047Y]
# PIK3CD (human) = PIK3CD (human) (UniProt O00329)
# PIM1 (human) = PIM1 (human) (UniProt P11309)
# PIP4K2B (human) = PIP4K2B (human) (UniProt P78356)
# PKN2 (human) = PKN2 (human) (UniProt Q16513)
# PRKCD (human) = PRKCD (human) (UniProt Q05655)
# RAF1 (human) = RAF1 (human) (UniProt P04049)
# RPS6KA2 KD1 (human) = RPS6KA2 KD1 (human) (UniProt Q15349)
# RPS6KA5 KD2 (human) = RPS6KA5 KD2 (human) (UniProt O75582)
# SLK (human) = SLK (human) (UniProt Q9H2G2)
# STK35 (human) = STK35 (human) (UniProt Q8TDR2)
# ZAP70 (human) = ZAP70 (human) (UniProt P43403)
# EPHA2 (human), sequence (P29317 whole entry, looked up): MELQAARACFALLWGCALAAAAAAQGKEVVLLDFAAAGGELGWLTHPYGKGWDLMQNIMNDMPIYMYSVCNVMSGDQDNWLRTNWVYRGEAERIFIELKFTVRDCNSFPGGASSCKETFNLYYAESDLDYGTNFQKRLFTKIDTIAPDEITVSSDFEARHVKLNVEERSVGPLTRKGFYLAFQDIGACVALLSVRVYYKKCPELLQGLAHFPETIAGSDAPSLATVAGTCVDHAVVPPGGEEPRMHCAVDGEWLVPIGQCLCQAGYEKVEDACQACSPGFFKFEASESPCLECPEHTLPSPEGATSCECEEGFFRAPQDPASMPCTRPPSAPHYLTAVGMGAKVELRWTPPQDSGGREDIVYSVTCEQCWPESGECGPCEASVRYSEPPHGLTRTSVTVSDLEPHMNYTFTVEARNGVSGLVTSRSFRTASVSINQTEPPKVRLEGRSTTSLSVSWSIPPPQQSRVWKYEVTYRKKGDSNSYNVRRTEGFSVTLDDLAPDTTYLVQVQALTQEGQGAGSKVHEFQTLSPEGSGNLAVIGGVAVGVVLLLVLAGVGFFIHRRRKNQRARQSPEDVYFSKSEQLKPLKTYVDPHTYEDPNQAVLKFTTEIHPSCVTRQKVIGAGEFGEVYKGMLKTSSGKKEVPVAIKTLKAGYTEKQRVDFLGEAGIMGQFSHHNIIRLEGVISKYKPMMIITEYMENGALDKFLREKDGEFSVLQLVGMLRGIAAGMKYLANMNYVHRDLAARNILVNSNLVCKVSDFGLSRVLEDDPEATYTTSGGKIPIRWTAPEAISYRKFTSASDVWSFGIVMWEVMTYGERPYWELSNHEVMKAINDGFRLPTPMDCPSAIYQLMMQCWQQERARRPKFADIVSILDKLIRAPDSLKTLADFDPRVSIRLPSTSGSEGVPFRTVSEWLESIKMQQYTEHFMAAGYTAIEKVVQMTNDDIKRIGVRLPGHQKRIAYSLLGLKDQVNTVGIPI
# PAK2 (human), sequence (Q13177 whole entry, looked up): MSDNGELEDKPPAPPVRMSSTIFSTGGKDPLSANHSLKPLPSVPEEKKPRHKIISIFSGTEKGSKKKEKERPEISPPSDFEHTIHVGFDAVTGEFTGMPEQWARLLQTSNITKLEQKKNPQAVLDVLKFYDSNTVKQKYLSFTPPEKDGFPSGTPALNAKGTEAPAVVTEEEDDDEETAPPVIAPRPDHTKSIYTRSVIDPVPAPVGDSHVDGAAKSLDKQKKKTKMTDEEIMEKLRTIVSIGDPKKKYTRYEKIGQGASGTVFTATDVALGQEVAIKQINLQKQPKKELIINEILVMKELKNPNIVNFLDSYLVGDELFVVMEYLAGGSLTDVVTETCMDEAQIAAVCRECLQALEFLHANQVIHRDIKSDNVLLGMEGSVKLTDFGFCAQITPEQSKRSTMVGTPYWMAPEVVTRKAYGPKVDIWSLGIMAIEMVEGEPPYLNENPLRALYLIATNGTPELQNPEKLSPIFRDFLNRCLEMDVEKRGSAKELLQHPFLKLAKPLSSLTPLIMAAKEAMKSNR
# RPS6KA5 KD2 (human), sequence (O75582 whole entry, looked up): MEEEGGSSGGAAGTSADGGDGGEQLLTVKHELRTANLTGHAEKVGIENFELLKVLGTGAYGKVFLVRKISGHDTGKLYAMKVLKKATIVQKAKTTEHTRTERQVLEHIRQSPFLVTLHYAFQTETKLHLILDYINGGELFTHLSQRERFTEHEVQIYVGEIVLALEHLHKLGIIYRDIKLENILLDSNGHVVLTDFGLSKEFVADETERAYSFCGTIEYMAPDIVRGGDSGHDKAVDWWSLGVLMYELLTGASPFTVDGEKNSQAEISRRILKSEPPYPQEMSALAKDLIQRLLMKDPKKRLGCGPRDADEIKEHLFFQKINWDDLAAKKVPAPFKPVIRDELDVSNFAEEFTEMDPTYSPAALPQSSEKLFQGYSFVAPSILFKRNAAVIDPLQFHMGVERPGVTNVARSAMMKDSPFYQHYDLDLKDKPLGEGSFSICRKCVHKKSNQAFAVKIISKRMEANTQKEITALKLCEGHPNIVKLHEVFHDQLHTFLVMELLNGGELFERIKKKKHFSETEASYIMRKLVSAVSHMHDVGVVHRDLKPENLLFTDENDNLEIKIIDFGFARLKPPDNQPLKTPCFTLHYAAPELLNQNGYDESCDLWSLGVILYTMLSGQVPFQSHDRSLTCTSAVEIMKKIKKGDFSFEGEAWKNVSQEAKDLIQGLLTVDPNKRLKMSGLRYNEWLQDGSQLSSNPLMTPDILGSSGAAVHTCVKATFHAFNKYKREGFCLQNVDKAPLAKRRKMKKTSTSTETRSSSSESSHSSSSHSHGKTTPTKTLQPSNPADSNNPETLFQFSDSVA
# KIT (human), P10721 [V559D/T670I], sequence (P10721 whole entry V559D/T670I, looked up): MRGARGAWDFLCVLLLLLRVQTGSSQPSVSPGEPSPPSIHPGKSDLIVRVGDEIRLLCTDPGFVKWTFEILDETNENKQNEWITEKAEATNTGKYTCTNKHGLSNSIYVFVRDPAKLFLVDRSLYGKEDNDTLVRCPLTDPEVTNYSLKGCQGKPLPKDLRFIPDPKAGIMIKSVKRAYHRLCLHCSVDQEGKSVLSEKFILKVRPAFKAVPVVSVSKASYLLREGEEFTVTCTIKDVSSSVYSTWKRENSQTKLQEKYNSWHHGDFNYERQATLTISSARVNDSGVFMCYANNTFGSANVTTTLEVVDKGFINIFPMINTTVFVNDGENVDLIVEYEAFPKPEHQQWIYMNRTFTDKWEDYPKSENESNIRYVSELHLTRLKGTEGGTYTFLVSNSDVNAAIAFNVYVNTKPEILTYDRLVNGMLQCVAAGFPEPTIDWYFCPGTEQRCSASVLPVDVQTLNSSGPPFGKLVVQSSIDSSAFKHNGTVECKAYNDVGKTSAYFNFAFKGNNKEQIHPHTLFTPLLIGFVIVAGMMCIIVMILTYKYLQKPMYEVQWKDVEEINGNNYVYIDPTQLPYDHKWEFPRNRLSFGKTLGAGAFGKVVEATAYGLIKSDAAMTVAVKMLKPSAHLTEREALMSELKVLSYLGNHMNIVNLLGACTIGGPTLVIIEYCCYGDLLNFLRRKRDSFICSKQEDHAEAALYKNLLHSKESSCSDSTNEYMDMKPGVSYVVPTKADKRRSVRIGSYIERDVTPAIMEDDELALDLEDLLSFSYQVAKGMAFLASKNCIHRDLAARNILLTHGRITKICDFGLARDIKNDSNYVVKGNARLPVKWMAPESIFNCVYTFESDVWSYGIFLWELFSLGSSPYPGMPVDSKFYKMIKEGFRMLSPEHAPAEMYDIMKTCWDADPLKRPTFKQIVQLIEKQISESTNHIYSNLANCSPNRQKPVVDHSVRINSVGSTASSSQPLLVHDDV
# PIP4K2B (human), sequence (P78356 whole entry, looked up): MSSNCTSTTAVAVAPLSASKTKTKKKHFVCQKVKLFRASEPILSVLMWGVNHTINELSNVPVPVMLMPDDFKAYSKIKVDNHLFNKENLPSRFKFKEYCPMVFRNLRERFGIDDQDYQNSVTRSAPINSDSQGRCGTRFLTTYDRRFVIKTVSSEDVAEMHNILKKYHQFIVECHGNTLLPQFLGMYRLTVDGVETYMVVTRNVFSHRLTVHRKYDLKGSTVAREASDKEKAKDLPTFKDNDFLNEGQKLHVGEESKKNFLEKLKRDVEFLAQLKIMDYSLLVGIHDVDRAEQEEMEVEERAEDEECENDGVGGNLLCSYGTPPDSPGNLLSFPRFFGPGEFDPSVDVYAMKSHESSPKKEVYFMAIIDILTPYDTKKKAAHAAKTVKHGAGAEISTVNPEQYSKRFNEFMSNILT
# CDK4 CCND3 (human), sequence (P11802 whole entry, looked up): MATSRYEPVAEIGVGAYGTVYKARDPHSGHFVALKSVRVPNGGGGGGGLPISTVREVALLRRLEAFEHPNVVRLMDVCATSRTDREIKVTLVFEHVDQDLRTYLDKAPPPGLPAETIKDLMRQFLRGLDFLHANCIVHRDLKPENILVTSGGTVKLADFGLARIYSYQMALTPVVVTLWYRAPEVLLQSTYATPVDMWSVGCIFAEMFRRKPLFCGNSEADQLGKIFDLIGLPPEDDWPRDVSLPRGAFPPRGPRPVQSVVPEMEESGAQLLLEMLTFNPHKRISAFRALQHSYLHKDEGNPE
# CDK4 CCND3 (human), sequence (P30281 whole entry, looked up): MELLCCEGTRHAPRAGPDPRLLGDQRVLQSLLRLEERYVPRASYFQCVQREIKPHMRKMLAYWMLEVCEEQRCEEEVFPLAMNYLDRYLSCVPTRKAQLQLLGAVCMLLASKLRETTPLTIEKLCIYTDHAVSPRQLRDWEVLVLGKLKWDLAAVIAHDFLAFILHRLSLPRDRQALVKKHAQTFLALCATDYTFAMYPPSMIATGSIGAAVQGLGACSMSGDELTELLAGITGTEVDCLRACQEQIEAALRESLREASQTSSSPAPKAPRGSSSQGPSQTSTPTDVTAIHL
# CSNK1G2 (human), sequence (P78368 whole entry, looked up): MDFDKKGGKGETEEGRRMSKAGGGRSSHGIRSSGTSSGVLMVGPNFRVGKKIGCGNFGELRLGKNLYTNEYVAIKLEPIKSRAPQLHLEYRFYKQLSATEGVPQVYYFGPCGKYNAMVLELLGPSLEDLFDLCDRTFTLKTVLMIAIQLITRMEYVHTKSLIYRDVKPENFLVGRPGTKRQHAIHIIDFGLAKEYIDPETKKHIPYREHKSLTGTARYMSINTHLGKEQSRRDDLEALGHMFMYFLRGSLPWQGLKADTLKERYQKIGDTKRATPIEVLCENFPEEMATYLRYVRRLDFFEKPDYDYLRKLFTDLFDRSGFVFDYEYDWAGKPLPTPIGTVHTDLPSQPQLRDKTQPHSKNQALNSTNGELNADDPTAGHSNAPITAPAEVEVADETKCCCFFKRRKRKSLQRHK
# PIM1 (human), sequence (P11309 whole entry, looked up): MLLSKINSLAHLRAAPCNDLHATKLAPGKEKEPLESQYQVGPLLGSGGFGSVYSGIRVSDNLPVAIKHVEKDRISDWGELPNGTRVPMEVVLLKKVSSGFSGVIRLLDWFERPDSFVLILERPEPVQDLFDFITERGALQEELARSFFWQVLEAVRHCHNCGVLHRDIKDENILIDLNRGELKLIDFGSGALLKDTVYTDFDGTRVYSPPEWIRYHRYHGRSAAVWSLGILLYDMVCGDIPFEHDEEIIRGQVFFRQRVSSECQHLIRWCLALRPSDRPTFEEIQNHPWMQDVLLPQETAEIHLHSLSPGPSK
smiles,measurement,setting,value
Cc1ccc(NC(=O)c2ccc(NC(=O)/C=C/CN(C)C)cc2)cc1Nc1nccc(-c2cccnc2)n1,"kinase still bound, per cent of control",AKT1 (human); compound 10.0 µM,100%
same,"kinase still bound, per cent of control",AURKA (human); compound 10.0 µM,100%
same,"kinase still bound, per cent of control",CDK14 (human); compound 10.0 µM,100%
same,"kinase still bound, per cent of control",CDK16 (human); compound 10.0 µM,100%
same,"kinase still bound, per cent of control",CDK4 CCND3 (human); compound 10.0 µM,100%
same,"kinase still bound, per cent of control",CHUK (human); compound 10.0 µM,70%
same,"kinase still bound, per cent of control",CSNK1A1L (human); compound 10.0 µM,100%
same,"kinase still bound, per cent of control",CSNK1G2 (human); compound 10.0 µM,83%
same,"kinase still bound, per cent of control",DDR1 (human); compound 10.0 µM,0.15%
same,"kinase still bound, per cent of control",DYRK1A (human); compound 10.0 µM,98%
same,"kinase still bound, per cent of control",EPHA2 (human); compound 10.0 µM,90%
same,"kinase still bound, per cent of control",EPHA7 (human); compound 10.0 µM,99%
same,"kinase still bound, per cent of control",ERBB4 (human); compound 10.0 µM,100%
same,"kinase still bound, per cent of control",FGFR1 (human); compound 10.0 µM,87%
same,"kinase still bound, per cent of control",FRK (human); compound 10.0 µM,86%
same,"kinase still bound, per cent of control",IKBKB (human); compound 10.0 µM,70%
same,"kinase still bound, per cent of control",[1]; compound 10.0 µM,5.1%
same,"kinase still bound, per cent of control",[2]; compound 10.0 µM,18%
same,"kinase still bound, per cent of control",LIMK1 (human); compound 10.0 µM,85%
same,"kinase still bound, per cent of control",MAP3K3 (human); compound 10.0 µM,81%
same,"kinase still bound, per cent of control",MAP4K1 (human); compound 10.0 µM,90%
same,"kinase still bound, per cent of control",MAP4K4 (human); compound 10.0 µM,78%
same,"kinase still bound, per cent of control",MAPKAPK2 (human); compound 10.0 µM,100%
same,"kinase still bound, per cent of control",MAPKAPK5 (human); compound 10.0 µM,74%
same,"kinase still bound, per cent of control",MELK (human); compound 10.0 µM,12%
same,"kinase still bound, per cent of control",NEK2 (human); compound 10.0 µM,100%
same,"kinase still bound, per cent of control",NTRK2 (human); compound 10.0 µM,67%
same,"kinase still bound, per cent of control",PAK2 (human); compound 10.0 µM,80%
same,"kinase still bound, per cent of control",PAK4 (human); compound 10.0 µM,84%
same,"kinase still bound, per cent of control",[3]; compound 10.0 µM,100%
same,"kinase still bound, per cent of control",[4]; compound 10.0 µM,72%
same,"kinase still bound, per cent of control",PIK3CD (human); compound 10.0 µM,95%
same,"kinase still bound, per cent of control",PIM1 (human); compound 10.0 µM,69%
same,"kinase still bound, per cent of control",PIP4K2B (human); compound 10.0 µM,69%
same,"kinase still bound, per cent of control",PKN2 (human); compound 10.0 µM,91%
same,"kinase still bound, per cent of control",PRKCD (human); compound 10.0 µM,96%
same,"kinase still bound, per cent of control",RAF1 (human); compound 10.0 µM,55%
same,"kinase still bound, per cent of control",RPS6KA2 KD1 (human); compound 10.0 µM,76%
same,"kinase still bound, per cent of control",RPS6KA5 KD2 (human); compound 10.0 µM,100%
same,"kinase still bound, per cent of control",SLK (human); compound 10.0 µM,100%
same,"kinase still bound, per cent of control",STK35 (human); compound 10.0 µM,82%
same,"kinase still bound, per cent of control",ZAP70 (human); compound 10.0 µM,56%
Cc1cc(NC(=O)c2cccc(NC(=O)/C=C/CN(C)C)c2)ccc1Nc1nccc(-c2cccnc2)n1,"kinase still bound, per cent of control",AKT1 (human); compound 1.0 µM,100%
same,"kinase still bound, per cent of control",AURKA (human); compound 1.0 µM,100%
same,"kinase still bound, per cent of control",CDK14 (human); compound 1.0 µM,88%
same,"kinase still bound, per cent of control",CDK16 (human); compound 1.0 µM,100%
same,"kinase still bound, per cent of control",CDK4 CCND3 (human); compound 1.0 µM,60%
same,"kinase still bound, per cent of control",CHUK (human); compound 1.0 µM,100%
same,"kinase still bound, per cent of control",CSNK1A1L (human); compound 1.0 µM,71%
same,"kinase still bound, per cent of control",CSNK1G2 (human); compound 1.0 µM,73%
same,"kinase still bound, per cent of control",DDR1 (human); compound 1.0 µM,93%
same,"kinase still bound, per cent of control",DYRK1A (human); compound 1.0 µM,81%
same,"kinase still bound, per cent of control",EPHA2 (human); compound 1.0 µM,100%
same,"kinase still bound, per cent of control",EPHA7 (human); compound 1.0 µM,100%
same,"kinase still bound, per cent of control",ERBB4 (human); compound 1.0 µM,96%
same,"kinase still bound, per cent of control",FGFR1 (human); compound 1.0 µM,94%
same,"kinase still bound, per cent of control",FRK (human); compound 1.0 µM,100%
same,"kinase still bound, per cent of control",IKBKB (human); compound 1.0 µM,99%
same,"kinase still bound, per cent of control",[1]; compound 1.0 µM,91%
same,"kinase still bound, per cent of control",[2]; compound 1.0 µM,4.4%
same,"kinase still bound, per cent of control",LIMK1 (human); compound 1.0 µM,74%
same,"kinase still bound, per cent of control",MAP3K3 (human); compound 1.0 µM,95%
same,"kinase still bound, per cent of control",MAP4K1 (human); compound 1.0 µM,89%
same,"kinase still bound, per cent of control",MAP4K4 (human); compound 1.0 µM,92%
same,"kinase still bound, per cent of control",MAPKAPK2 (human); compound 1.0 µM,100%
same,"kinase still bound, per cent of control",MAPKAPK5 (human); compound 1.0 µM,74%
same,"kinase still bound, per cent of control",MELK (human); compound 1.0 µM,71%
same,"kinase still bound, per cent of control",NEK2 (human); compound 1.0 µM,100%
same,"kinase still bound, per cent of control",NTRK2 (human); compound 1.0 µM,96%
same,"kinase still bound, per cent of control",PAK2 (human); compound 1.0 µM,100%
same,"kinase still bound, per cent of control",PAK4 (human); compound 1.0 µM,100%
same,"kinase still bound, per cent of control",[3]; compound 1.0 µM,100%
same,"kinase still bound, per cent of control",[4]; compound 1.0 µM,96%
same,"kinase still bound, per cent of control",PIK3CD (human); compound 1.0 µM,95%
same,"kinase still bound, per cent of control",PIM1 (human); compound 1.0 µM,100%
same,"kinase still bound, per cent of control",PIP4K2B (human); compound 1.0 µM,99%
same,"kinase still bound, per cent of control",PKN2 (human); compound 1.0 µM,58%
same,"kinase still bound, per cent of control",PRKCD (human); compound 1.0 µM,100%
same,"kinase still bound, per cent of control",RAF1 (human); compound 1.0 µM,93%
same,"kinase still bound, per cent of control",RPS6KA2 KD1 (human); compound 1.0 µM,100%
same,"kinase still bound, per cent of control",RPS6KA5 KD2 (human); compound 1.0 µM,97%
same,"kinase still bound, per cent of control",SLK (human); compound 1.0 µM,100%
same,"kinase still bound, per cent of control",STK35 (human); compound 1.0 µM,68%
same,"kinase still bound, per cent of control",ZAP70 (human); compound 1.0 µM,79%
CN(C)C/C=C/C(=O)Nc1cccc(C(=O)Nc2ccc(Nc3nccc(-c4c(-c5ccccc5)nn5ccccc45)n3)cc2)c1,"kinase still bound, per cent of control",AKT1 (human); compound 1.0 µM,100%
same,"kinase still bound, per cent of control",AURKA (human); compound 1.0 µM,28%
same,"kinase still bound, per cent of control",CDK14 (human); compound 1.0 µM,100%
same,"kinase still bound, per cent of control",CDK16 (human); compound 1.0 µM,100%
same,"kinase still bound, per cent of control",CDK4 CCND3 (human); compound 1.0 µM,81%
same,"kinase still bound, per cent of control",CHUK (human); compound 1.0 µM,93%
same,"kinase still bound, per cent of control",CSNK1A1L (human); compound 1.0 µM,5.5%
same,"kinase still bound, per cent of control",CSNK1G2 (human); compound 1.0 µM,0.85%
same,"kinase still bound, per cent of control",DDR1 (human); compound 1.0 µM,0%
same,"kinase still bound, per cent of control",DYRK1A (human); compound 1.0 µM,90%
same,"kinase still bound, per cent of control",EPHA2 (human); compound 1.0 µM,76%
same,"kinase still bound, per cent of control",EPHA7 (human); compound 1.0 µM,100%
same,"kinase still bound, per cent of control",ERBB4 (human); compound 1.0 µM,5.4%
same,"kinase still bound, per cent of control",FGFR1 (human); compound 1.0 µM,80%
same,"kinase still bound, per cent of control",FRK (human); compound 1.0 µM,32%
same,"kinase still bound, per cent of control",IKBKB (human); compound 1.0 µM,84%
same,"kinase still bound, per cent of control",[1]; compound 1.0 µM,79%
same,"kinase still bound, per cent of control",[2]; compound 1.0 µM,4%
same,"kinase still bound, per cent of control",LIMK1 (human); compound 1.0 µM,100%
same,"kinase still bound, per cent of control",MAP3K3 (human); compound 1.0 µM,68%
same,"kinase still bound, per cent of control",MAP4K1 (human); compound 1.0 µM,69%
same,"kinase still bound, per cent of control",MAP4K4 (human); compound 1.0 µM,9.8%
same,"kinase still bound, per cent of control",MAPKAPK2 (human); compound 1.0 µM,84%
same,"kinase still bound, per cent of control",MAPKAPK5 (human); compound 1.0 µM,100%
same,"kinase still bound, per cent of control",MELK (human); compound 1.0 µM,100%
same,"kinase still bound, per cent of control",NEK2 (human); compound 1.0 µM,93%
same,"kinase still bound, per cent of control",NTRK2 (human); compound 1.0 µM,14%
same,"kinase still bound, per cent of control",PAK2 (human); compound 1.0 µM,88%
same,"kinase still bound, per cent of control",PAK4 (human); compound 1.0 µM,91%
same,"kinase still bound, per cent of control",[3]; compound 1.0 µM,91%
same,"kinase still bound, per cent of control",[4]; compound 1.0 µM,93%
same,"kinase still bound, per cent of control",PIK3CD (human); compound 1.0 µM,95%
same,"kinase still bound, per cent of control",PIM1 (human); compound 1.0 µM,84%
same,"kinase still bound, per cent of control",PIP4K2B (human); compound 1.0 µM,100%
same,"kinase still bound, per cent of control",PKN2 (human); compound 1.0 µM,100%
same,"kinase still bound, per cent of control",PRKCD (human); compound 1.0 µM,100%
same,"kinase still bound, per cent of control",RAF1 (human); compound 1.0 µM,83%
same,"kinase still bound, per cent of control",RPS6KA2 KD1 (human); compound 1.0 µM,86%
same,"kinase still bound, per cent of control",RPS6KA5 KD2 (human); compound 1.0 µM,97%
same,"kinase still bound, per cent of control",SLK (human); compound 1.0 µM,18%
same,"kinase still bound, per cent of control",STK35 (human); compound 1.0 µM,94%
same,"kinase still bound, per cent of control",ZAP70 (human); compound 1.0 µM,96%
